From patent publication US6326516A, “Acetylenic β-sulfonamido and phosphinic acid amide hydroxamic acid TACE inhibitors” (American Cyanamid Company, priority 2000, dated 2001)
Read-outs that look alike come from different tables or passages of the source.

Columns and labels:
MMP-13 = MMP-13 (Homo sapiens, UniProt P45452); assay: MMP-13 inhibition (thiopeptide or fluorescent peptide substrate); type: biochemical
Protocol: (§1) The enzyme activity is measured by the rate of the color increase. The thiopeptide substrate is made up fresh as a 20 mM stock in 100% DMSO and the DTNB is dissolved in 100% DMSO as a 100 mM stock and stored in the dark at room temperature. Both the substrate and DTNB are diluted together to 1 mM with substrate buffer (50 mM HEPES pH 7.5, 5 mM CaCl2) before use. The stock of enzyme is diluted with buffer (50 mM HEPES, pH 7.5, 5 mM CaCl2, 0.02% Brij) to the desired final concentration. The buffer, enzyme, vehicle or inhibitor, and DTNB/substrate are added in this order to a 96 well plate (total reaction volume of 200 μl) and the increase in color is monitored spectrophotometrically for 5 minutes at 405 nm on a plate reader and the increase in color over time is plotted as a linear line.
(§2) Alternatively, a fluorescent peptide substrate is used. In this test procedure, the peptide substrate contains a fluorescent group and a quenching group. Upon cleavage of the substrate by an MMP, the fluorescence that is generated is quantitated on the fluorescence plate reader. The assay is run in HCBC assay buffer (50 mM HEPES, pH 7.0, 5 mM Ca^+2, 0.02% Brij, 0.5% Cysteine), with human recombinant MMP-1, MMP-9, or MMP-13. The substrate is dissolved in methanol and stored frozen in 1 mM aliquots. For the assay, substrate and enzymes are diluted in HCBC buffer to the desired concentrations. Compounds are added to the 96 well plate containing enzyme and the reaction is started by the addition of substrate. The reaction is read (excitation 340 nm, emission 444 nm) for 10 min. and the increase in fluorescence over time is plotted as a linear line.
(§3) For either the thiopeptide or fluorescent peptide test procedures, the slope of the line is calculated and represents the reaction rate. The linearity of the reaction rate is confirmed (r^2 >0.85). The mean (x±sem) of the control rate is calculated and compared for statistical significance (p<0.05) with drug-treated rates using Dunnett's multiple comparison test. Dose-response relationships can be generated using multiple doses of drug and IC50 values with 95% CI are estimated using linear regression.

[1] = biological target: TNF-α converting enzyme (TACE) (Homo sapiens, UniProt P78536); assay: TACE inhibition (fluorescent peptidyl substrate); type: biochemical
TNF-α converting enzyme (TACE), sequence (P78536 215-824): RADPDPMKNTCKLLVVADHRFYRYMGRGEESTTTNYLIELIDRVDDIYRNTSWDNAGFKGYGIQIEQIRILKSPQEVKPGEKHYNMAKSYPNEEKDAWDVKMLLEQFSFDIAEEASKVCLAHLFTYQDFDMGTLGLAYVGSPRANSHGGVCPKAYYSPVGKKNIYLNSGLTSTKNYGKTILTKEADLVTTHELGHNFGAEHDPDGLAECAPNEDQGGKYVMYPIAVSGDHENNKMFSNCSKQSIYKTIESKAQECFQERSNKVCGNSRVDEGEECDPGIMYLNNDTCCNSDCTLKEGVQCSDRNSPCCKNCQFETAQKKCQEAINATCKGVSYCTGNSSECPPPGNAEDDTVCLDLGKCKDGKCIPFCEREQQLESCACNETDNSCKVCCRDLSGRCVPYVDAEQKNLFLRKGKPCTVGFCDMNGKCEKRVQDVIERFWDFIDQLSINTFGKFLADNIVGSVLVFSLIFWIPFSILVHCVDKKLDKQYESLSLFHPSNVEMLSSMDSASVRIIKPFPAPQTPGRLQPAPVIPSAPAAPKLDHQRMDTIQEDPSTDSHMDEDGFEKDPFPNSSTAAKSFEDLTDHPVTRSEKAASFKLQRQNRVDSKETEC
Protocol: Using 96-well black microtiter plates, each well receives a solution composed of 10 μL TACE (fmal concentration 1 μg/mL), 70 μL Tris buffer, pH 7.4 containing 10% glycerol (final concentration 10 mM), and 10 μL of test compound solution in DMSO (final concentration 1 μM, DMSO concentration <1%) and incubated for 10 minutes at room temperature. The reaction is initiated by addition of a fluorescent peptidyl substrate (final concentration 100 μM) to each well and then shaking on a shaker for 5 sec.
The reaction is read (excitation 340 nm, emission 420 nm) for 10 min. and the increase in fluorescence over time is plotted as a linear line. The slope of the line is calculated and represents the reaction rate.
as §3, with “The” for “For either the thiopeptide or fluorescent peptide test procedures, the slope of the line is calculated and represents the reaction rate. The”, “generate” for “generated”

MMP-1 = biological target: T1, MMP-1 (Homo sapiens, UniProt P03956); assay: MMP-1 inhibition (thiopeptide or fluorescent peptide substrate); type: biochemical
T1 sequence (P03956 100-469): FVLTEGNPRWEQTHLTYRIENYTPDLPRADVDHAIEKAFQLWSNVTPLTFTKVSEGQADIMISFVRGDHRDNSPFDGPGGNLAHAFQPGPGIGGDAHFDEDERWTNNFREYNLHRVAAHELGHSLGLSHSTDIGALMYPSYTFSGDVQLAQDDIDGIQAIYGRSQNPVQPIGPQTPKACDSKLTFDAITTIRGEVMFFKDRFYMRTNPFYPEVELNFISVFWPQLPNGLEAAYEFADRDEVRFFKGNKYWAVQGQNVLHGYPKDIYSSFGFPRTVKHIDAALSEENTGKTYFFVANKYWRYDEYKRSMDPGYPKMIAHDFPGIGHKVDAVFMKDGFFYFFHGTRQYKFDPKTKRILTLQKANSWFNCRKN
Protocol: as §1, §2, §3

MMP-9 = MMP-9 (Homo sapiens, UniProt P14780); assay: MMP-9 inhibition (thiopeptide or fluorescent peptide substrate); type: biochemical
MMP-9, sequence (P14780 94-707): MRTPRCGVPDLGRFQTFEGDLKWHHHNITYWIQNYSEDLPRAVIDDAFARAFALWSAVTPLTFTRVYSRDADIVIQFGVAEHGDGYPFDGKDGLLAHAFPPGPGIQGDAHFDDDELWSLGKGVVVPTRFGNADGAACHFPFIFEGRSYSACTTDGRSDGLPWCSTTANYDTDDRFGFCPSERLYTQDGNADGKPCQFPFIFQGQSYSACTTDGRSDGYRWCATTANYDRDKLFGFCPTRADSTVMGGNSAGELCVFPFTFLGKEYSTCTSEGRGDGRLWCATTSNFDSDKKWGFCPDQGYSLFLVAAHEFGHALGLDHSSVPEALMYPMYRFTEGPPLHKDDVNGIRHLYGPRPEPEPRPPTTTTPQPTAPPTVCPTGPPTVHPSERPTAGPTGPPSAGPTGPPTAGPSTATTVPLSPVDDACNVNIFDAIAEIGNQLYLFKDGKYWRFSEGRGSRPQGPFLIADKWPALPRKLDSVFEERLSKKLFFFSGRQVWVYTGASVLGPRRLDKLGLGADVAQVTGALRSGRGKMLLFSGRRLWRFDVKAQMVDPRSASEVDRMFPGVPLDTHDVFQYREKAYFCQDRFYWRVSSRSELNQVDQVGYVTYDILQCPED
Protocol: as §1, §2, §3

THP-1 cells = assay: Human Monocytic THP-1 Cell Differentiation Assay for Soluble Proteins (THP-1 Soluble Protein Assay); type: cell-based
Protocol: THP-1 cells (from ATCC) are a human monocytic cell line which were obtained from the peripheral blood of a person with acute monocytic leukemia. They can be grown in culture and differentiated into macrophage like cells by stimulation with mitogens.
For the assay, THP-1 cells are seeded from an ATCC stock which was previously grown and frozen back at 5×10^6/ml/vial. One vial is seeded into a T25-flask with 16 mls of RPMI-1640 with glutamax (Gibco) media containing 10% fetal bovine serum, 100 units/ml penicillin, 100 μg/ml streptomycin, and 5×10^-5 M 2-mercapto-ethanol (THP-1 media). Each vial of cells are cultured for about two weeks prior to being used for an assay and then are used for only 4 to 6 weeks to screen compounds. Cells are subcultured on Mondays and Thursdays to a concentration of 1×10^5/ml.
To perform an assay, the THP-1 cells are co-incubated in a 24 well plate with […] of a 24 mg/ml stock of Lipopolysacharide (LPS) (Calbiochem Lot# B13189) at 37° C. in 5% CO2 at a concentration of 1.091×10^6 cells/ml (1.1 ml/well) for a total of 24 hours. At the same time, […] of drug, vehicle or THP-1 media is plated in appropriate wells to give a final volume of 1.2 ml/well. Standard and test compounds are dissolved in DMSO at a concentration of 36 mM and diluted from here to the appropriate concentrations in THP-1 media and added to the wells at the beginning of the incubation period to give final concentrations of […], 300 nM, and 100 nM. Cell exposure to DMSO was limited to 0.1% final concentration. Positive control wells were included in the experiment which had mitogen added but no drug. Vehicle control wells were included as well, which were identical to the positive control wells, except that DMSO was added to give a final concentration of 0.083%. Negative control wells were included in the experiment which had vehicle but no mitogen or drug added to the cells. Compounds can be evaluated for their effect on basal (non-stimulated) shedding of the receptors by replacing the LPS with […] of THP-1 media. Plates are placed into an incubator set at 5% CO2 and at 37° C. After 4 hours of incubation, […] of tissue culture supernatant (TCS) is removed for use in an TNF-α ELISA. Following 24 hours of incubation, […] of TCS is removed and used for analysis in TNF-R p75/80, TNF-R p55/60 and IL-8 ELISAs.
In addition, at the 24 hours timepoint, and the cells for each treatment group are collected by resuspension in 500 μl/well of THP-1 media and transferred into a FACS tube. Two ml/tube of a 0.5 mg/ml stock of propidium iodide (PI) (Boerhinger Mannheim cat. # 1348639) is added. The samples are run on a Becton Dickinson FaxCaliber FLOW cytometry machine and the amount of dye taken up by each cell is measured in the high red wavelength (FL3). Only cells with compromised membranes (dead or dying) can take up PI. The percent of live cells is calculated by the number of cells not stained with PI, divided by the total number of cells in the sample. The viability values calculated for the drug treated groups were compared to the viability value calculated for the vehicle treated mitogen stimulated group ("vehicle positive control") to determine the "percent change from control". This "percent change from control" value is an indicator of drug toxicity.
The quantity of soluble TNF-α, TNF-R p75/80 and TNF-R p55/60 and IL-8 in the TCS of the THP-1 cell cultures are obtained with commercially available ELISAs from R&D Systems, by extrapolation from a standard curve generated with kit standards. The number of cells that either take up or exclude PI are measured by the FLOW cytometry machine and visualized by histograms using commercially available Cytologic software for each treatment group including all controls. […]

| Compound | IC50 (MMP-13) [µM] | IC50 [1] [nM] | IC50 (MMP-1; bounds given in uM) [µM] | IC50 (MMP-9; bounds given in uM) [µM] | IC50 (MMP-1) [µM] | IC50 (MMP-9) [µM] | IC50 (MMP-13; bounds given in uM) [µM] | inhibition at 3 µM (THP-1 cells) [%] |
| --- | --- | --- | --- | --- | --- | --- | --- | --- |
| CC#CCOc1ccc(S(=O)(=O)N(C)[C@@H]2CCCC[C@H]2C(=O)NO)cc1 [Example 17, (1R,2R)-2-[{[4-(2-Butynyloxy)phenyl]sulfonyl}(methyl)amino]-N-hydroxycyclohexanecarboxamide] |  | 28 | > 10 | > 10 |  |  | > 10 | 14 |
| CC#CCOc1ccc(S(=O)(=O)N[C@@H]2CCCC[C@H]2C(=O)NO)cc1 [Example 18, (1R,2R)-2-({[4-(2-Butynyloxy)phenyl]sulfonyl}amino)-N-hydroxycyclohexanecarboxamide] |  | 61 | > 10 | > 10 |  |  | > 10 | 1 |
| CC#CCOc1ccc(S(=O)(=O)N(C)CCC(=O)NO)cc1 [Example 24, 3-({[4-(2-Butynyloxy)phenyl]sulfonyl}(methyl)amino)-N-hydroxypropanamide] |  | 73 |  |  |  |  |  | 9 |
| CC#CCOc1ccc(S(=O)(=O)N(C)[C@H]2CCC[C@H]2C(=O)NO)cc1 [Example 30, (1R,2S)-2-[{[4-(2-Butynyloxy)phenyl]sulfonyl}(methyl)amino]N-hydroxycyclopentanecarboxamide] | 0.308 | 14 |  |  | 2.77 | 0.383 |  | 65 |
| CC#CCOc1ccc(S(=O)(=O)NC2C3CCC(C3)C2C(=O)NO)cc1 [Example 38, (1R,2R,3S,4R)-(Cis)-3-({[4-(2-butynyloxy)phenyl]sulfonyl}amino)-N-hydroxybicyclo[2.2.1]heptane-2-carboxamide] |  | 30 | > 10 | > 10 |  |  | ~10 | 9 |
| CC#CCOc1ccc(S(=O)(=O)N(C)C2C3CCC(C3)C2C(=O)NO)cc1 [Example 42, (1R,2R,3S,4R)-(Cis)-3-({[4-(2-butynyloxy)phenyl]sulfonyl}(methyl)amino)-N-hydroxybicyclo[2.2.1]heptane-2-carboxamide] | 1.14 | 62 | ~10 |  |  |  |  | 77 |

Continued, in another order:

| IC50 (MMP-13) [µM] | IC50 [1] [nM] | IC50 (MMP-1; bounds given in uM) [µM] | IC50 (MMP-9; bounds given in uM) [µM] | IC50 (MMP-1) [µM] | IC50 (MMP-9) [µM] | IC50 (MMP-13; bounds given in uM) [µM] | Compound | inhibition at 3 µM (THP-1 cells) [%] |
| --- | --- | --- | --- | --- | --- | --- | --- | --- |
| 1.74 | 36 | > 10 | ~10 |  |  |  | CC#CCOc1ccc(S(=O)(=O)N[C@H]2CCCC[C@H]2C(=O)NO)cc1 (relative stereo) [Example 32, (Cis)-2-[{[4-(2-butynyloxy)phenyl]sulfonyl}amino)-N-hydroxycyclohexanecarboxamide] | 29 |
| 1.82 | 53 |  |  | 4.23 | 1.32 |  | CC#CCOc1ccc(S(=O)(=O)N(C)[C@H]2CCCC[C@H]2C(=O)NO)cc1 (relative stereo) [Example 36, (Cis)-2-[{[4-(2-butynyloxy)phenyl]sulfonyl}(methyl)amino]-N-hydroxycyclohexanecarboxamide] | 23 |
|  | 145 |  |  |  |  |  | CC#CCOc1ccc(S(=O)(=O)NCCC(=O)NO)cc1 [Example 21, 3-({[4-(2-Butynyloxy)phenyl]sulfonyl}amino)-N-hydroxypropanamide] | 0 |
| 0.672 | 15 | > 1 |  |  | 5.06 |  | CC#CCOc1ccc(S(=O)(=O)N[C@H]2CCC[C@H]2C(=O)NO)cc1 [Example 26] | 23 |
